pIC50: −log10 of the molar value.
Legend:
Assay type in all cases: biochemical
FGFR1 kinase (h) = FGFR1 kinase (h) (Homo sapiens (Human), UniProt P11362); assay: Kinase selectivity panel: FGFR1 kinase (h); conditions: 10 μM in duplicate, read-out: % inhibition of control values
Protocol: (§1) (a) Compounds 1 and 2 were tested against a panel of 60 kinases in order to assess their selectivity. The assays were chosen taking into consideration the diversity of assay families.
(§2) Tested kinases were representative of following kinase sub-families: • protein-serine/threonine kinases; • protein-tyrosine kinases; • other kinases; and • atypical kinases.
(§3) Human recombinant kinases were incubated in the presence of specific peptide substrates plus ATP for different times (10, 15, 30, 60 or 90 minutes) at 22° C. Phosphorylated substrate was detected by LANCE or HTRF technology (CISBIO, MA, USA). The compounds were tested at 10 μM in duplicate.
(§4) The results are expressed as a percentage of inhibition of control specific activity obtained in the presence of the test compounds and are reported in the following Table 5.
(§5) (b) Compounds 3, 8, 29 and 31 were tested against the same panel of 60 kinases under the same conditions described above for compounds 1 and 2.
(§6) The results are expressed as a percent of inhibition of control specific activity obtained in the presence of the test compounds and are reported in the following Table 6.

RSK2 (h) = RSK2 (h) (Homo sapiens (Human), UniProt P51812); assay: Kinase selectivity panel: RSK2 (h); conditions: 10 μM in duplicate, read-out: % inhibition of control values
Protocol: as §1, §2, §3, §4, §5, §6

NEK7 (h) = NEK7 (h) (Homo sapiens (Human), UniProt Q8TDX7); assay: Kinase selectivity panel: NEK7 (h); conditions: 10 μM in duplicate, read-out: % inhibition of control values
Protocol: as §1, §2, §3, §4, §5, §6

CHK1 (h) = CHK1 (h) (Homo sapiens (Human), UniProt O14757); assay: Kinase selectivity panel: CHK1 (h); conditions: 10 μM in duplicate, read-out: % inhibition of control values
Protocol: as §1, §2, §3, §4, §5, §6

Src kinase (h) = Src kinase (h) (Homo sapiens (Human), UniProt P12931); assay: Kinase selectivity panel: Src kinase (h); conditions: 10 μM in duplicate, read-out: % inhibition of control values
Protocol: as §1, §2, §3, §4, §5, §6

Pim1 kinase (h) = Pim1 kinase (h) (Homo sapiens (Human), UniProt P11309); assay: Kinase selectivity panel: Pim1 kinase (h); conditions: 10 μM in duplicate, read-out: % inhibition of control values
Protocol: as §1, §2, §3, §4, §5, §6

PKCbeta 1 (h) = PKCbeta 1 (h) (Homo sapiens (Human), UniProt P05771); assay: Kinase selectivity panel: PKCbeta 1 (h); conditions: 10 μM in duplicate, read-out: % inhibition of control values
PKCbeta 1 (h), sequence (P05771 whole entry): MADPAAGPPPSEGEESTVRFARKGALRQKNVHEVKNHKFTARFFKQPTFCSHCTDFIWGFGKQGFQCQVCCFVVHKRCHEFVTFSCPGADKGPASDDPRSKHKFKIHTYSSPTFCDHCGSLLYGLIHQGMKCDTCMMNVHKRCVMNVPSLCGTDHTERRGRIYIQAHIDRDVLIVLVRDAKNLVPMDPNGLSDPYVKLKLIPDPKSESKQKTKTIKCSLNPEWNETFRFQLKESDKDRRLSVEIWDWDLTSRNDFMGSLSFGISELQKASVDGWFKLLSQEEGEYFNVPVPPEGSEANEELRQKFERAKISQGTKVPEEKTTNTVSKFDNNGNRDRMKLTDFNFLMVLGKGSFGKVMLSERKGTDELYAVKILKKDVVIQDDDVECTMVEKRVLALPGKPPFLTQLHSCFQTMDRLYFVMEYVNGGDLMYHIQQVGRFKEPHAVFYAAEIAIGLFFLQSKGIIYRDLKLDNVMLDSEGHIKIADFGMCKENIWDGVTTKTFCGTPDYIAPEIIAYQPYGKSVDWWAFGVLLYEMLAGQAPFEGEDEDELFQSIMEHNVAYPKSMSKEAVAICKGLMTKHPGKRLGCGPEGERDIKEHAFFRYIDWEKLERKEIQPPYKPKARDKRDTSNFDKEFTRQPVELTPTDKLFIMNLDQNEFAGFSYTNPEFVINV
Protocol: as §1, §2, §3, §4, §5, §6

CDK2 (h) (cycA) = CDK2 (h) (cycA) (Homo sapiens (Human), UniProt P24941); assay: Kinase selectivity panel: CDK2 (h) (cycA); conditions: 10 μM in duplicate, read-out: % inhibition of control values
Protocol: as §1, §2, §3, §4, §5, §6

DCAMKL1 (h) = DCAMKL1 (h) (Homo sapiens (Human), UniProt O15075); assay: Kinase selectivity panel: DCAMKL1 (h); conditions: 10 μM in duplicate, read-out: % inhibition of control values
Protocol: as §1, §2, §3, §4, §5, §6

IRK (h) (InsR) = IRK (h) (InsR) (Homo sapiens (Human), UniProt P06213); assay: Kinase selectivity panel: IRK (h) (InsR); conditions: 10 μM in duplicate, read-out: % inhibition of control values
IRK (h) (InsR), sequence (P06213 28-1382): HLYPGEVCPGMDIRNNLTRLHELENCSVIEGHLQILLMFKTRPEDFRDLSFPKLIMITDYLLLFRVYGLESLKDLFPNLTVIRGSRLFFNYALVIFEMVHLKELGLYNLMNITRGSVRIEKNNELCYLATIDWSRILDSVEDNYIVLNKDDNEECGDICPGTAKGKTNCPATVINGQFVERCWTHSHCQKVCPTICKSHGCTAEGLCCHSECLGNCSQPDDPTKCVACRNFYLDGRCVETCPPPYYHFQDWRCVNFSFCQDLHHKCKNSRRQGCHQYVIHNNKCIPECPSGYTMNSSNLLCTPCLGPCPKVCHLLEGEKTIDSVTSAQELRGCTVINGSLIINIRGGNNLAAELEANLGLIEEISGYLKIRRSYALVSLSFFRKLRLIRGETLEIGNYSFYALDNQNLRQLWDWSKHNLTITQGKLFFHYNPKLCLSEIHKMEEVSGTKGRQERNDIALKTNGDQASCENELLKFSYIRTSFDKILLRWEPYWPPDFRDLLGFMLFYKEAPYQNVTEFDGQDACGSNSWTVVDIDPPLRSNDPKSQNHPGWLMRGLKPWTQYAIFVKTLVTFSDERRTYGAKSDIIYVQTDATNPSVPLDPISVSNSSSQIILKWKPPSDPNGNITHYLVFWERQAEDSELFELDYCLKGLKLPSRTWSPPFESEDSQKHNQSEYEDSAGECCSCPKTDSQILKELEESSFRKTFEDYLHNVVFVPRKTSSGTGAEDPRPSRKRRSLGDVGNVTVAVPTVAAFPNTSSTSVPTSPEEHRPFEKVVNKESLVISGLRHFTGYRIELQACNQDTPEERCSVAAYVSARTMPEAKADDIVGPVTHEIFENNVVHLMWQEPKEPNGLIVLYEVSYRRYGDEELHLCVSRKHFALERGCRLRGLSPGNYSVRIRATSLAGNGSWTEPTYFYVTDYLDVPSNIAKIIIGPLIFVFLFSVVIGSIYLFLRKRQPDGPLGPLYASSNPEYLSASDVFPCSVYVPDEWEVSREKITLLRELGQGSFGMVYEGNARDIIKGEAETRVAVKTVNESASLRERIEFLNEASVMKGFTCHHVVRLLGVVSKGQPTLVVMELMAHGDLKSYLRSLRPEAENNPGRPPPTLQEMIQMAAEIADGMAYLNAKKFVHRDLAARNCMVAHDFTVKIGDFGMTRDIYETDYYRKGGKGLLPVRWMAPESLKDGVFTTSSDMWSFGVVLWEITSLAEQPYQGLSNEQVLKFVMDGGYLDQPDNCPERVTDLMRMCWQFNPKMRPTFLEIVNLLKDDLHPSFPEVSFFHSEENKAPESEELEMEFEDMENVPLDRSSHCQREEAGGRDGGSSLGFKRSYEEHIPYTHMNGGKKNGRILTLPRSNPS
Protocol: as §1, §2, §3, §4, §5, §6

EphB4 kinase (h) = EphB4 kinase (h) (Homo sapiens (Human), UniProt P54760); assay: Kinase selectivity panel: EphB4 kinase (h); conditions: 10 μM in duplicate, read-out: % inhibition of control values
Protocol: as §1, §2, §3, §4, §5, §6

MYT1 kinase (h) = MYT1 kinase (h) (Homo sapiens (Human), UniProt Q99640); assay: Kinase selectivity panel: MYT1 kinase (h); conditions: 10 μM in duplicate, read-out: % inhibition of control values
Protocol: as §1, §2, §3, §4, §5, §6

p38delta kinase (h) = p38delta kinase (h) (Homo sapiens (Human), UniProt O15264); assay: Kinase selectivity panel: p38delta kinase (h); conditions: 10 μM in duplicate, read-out: % inhibition of control values
p38delta kinase (h), sequence (O15264 whole entry): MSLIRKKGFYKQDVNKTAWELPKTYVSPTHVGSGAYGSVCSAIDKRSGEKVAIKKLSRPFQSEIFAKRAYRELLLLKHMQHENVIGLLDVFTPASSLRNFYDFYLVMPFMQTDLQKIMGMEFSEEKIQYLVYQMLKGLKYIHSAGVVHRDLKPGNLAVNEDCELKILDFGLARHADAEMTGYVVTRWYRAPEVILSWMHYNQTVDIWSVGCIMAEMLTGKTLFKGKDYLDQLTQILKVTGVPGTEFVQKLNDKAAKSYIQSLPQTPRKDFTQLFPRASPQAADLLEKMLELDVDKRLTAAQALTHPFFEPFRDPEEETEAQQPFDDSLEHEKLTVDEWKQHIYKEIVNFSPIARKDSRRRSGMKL
Protocol: as §1, §2, §3, §4, §5, §6

human GSK-3β = human GSK-3β (Homo sapiens (Human), UniProt P49841); assay: Activity on human GSK-3β, LANCE substrate phosphorylation assay; conditions: for inhibition at 10 µM: in duplicate, first screening assay; for pIC50: compounds 1 to 15, LANCE assay, five concentrations 100 μM to 10 nM
human GSK-3β, sequence (P49841 whole entry): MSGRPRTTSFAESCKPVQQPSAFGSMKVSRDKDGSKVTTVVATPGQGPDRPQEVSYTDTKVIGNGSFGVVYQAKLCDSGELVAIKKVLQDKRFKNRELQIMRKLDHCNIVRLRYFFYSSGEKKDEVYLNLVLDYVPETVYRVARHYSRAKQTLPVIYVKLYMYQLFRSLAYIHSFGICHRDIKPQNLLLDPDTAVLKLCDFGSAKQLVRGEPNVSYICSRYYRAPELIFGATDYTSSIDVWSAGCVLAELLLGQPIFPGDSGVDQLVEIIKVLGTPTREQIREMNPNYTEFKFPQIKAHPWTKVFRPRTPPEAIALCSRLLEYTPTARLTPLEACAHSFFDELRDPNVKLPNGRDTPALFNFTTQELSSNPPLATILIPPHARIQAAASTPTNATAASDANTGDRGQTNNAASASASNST
Protocol: Activity on human GSK-3β was assessed using the following methods (according to Meijer et al., Chem. Biol., 2003-10:1255-1266).
In a first screening assay, compounds were tested in duplicate at a concentration of 10 μM.
Human recombinant enzyme GSK-3β was incubated for 90 minutes at 22° C. in the presence of compounds or vehicle in a reaction buffer containing ATP plus 100 nM unphosphorylated specific substrate peptide (Ulight-[…] K-amide). Substrate phosphorylation was measured by LANCE technology (PerkinElmer, Conn., USA).
In a second assay, the same compounds were assayed at five concentrations ranging from 100 μM to 10 nM with ten-fold dilutions in duplicate.
The IC50 values (concentration causing a half maximal inhibition of control specific activity), reported in table 4, were determined by non-linear regression analysis of the inhibition curves generated with mean replicate values using Hill equation curve fitting.

Abl kinase (h) = Abl kinase (h) (Homo sapiens (Human), UniProt P00519); assay: Kinase selectivity panel: Abl kinase (h); conditions: 10 μM in duplicate, read-out: % inhibition of control values
Protocol: as §1, §2, §3, §4, §5, §6

DYRK1a (h) = DYRK1a (h) (Homo sapiens (Human), UniProt Q13627); assay: Kinase selectivity panel: DYRK1a (h); conditions: 10 μM in duplicate, read-out: % inhibition of control values
Protocol: as §1, §2, §3, §4, §5, §6

JAK1 (h) = JAK1 (h) (Homo sapiens (Human), UniProt P23458); assay: Kinase selectivity panel: JAK1 (h); conditions: 10 μM in duplicate, read-out: % inhibition of control values
Protocol: as §1, §2, §3, §4, §5, §6

AurB/Aur1 kinase (h) = AurB/Aur1 kinase (h) (Homo sapiens (Human), UniProt Q96GD4); assay: Kinase selectivity panel: AurB/Aur1 kinase (h); conditions: 10 μM in duplicate, read-out: % inhibition of control values
AurB/Aur1 kinase (h), sequence (Q96GD4 whole entry): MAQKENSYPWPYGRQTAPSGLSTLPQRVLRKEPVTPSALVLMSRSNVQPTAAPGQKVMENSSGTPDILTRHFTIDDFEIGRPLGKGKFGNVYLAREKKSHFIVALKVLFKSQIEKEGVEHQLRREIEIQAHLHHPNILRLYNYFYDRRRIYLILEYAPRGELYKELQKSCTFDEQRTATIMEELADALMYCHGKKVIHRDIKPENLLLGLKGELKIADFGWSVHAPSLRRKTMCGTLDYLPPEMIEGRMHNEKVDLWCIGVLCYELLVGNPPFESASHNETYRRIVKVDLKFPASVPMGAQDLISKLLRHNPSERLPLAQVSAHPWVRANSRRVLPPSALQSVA
Protocol: as §1, §2, §3, §4, §5, §6

DLK1 (h) (MAP3K12) = DLK1 (h) (MAP3K12) (Homo sapiens (Human), UniProt Q12852); assay: Kinase selectivity panel: DLK1 (h) (MAP3K12); conditions: 10 μM in duplicate, read-out: % inhibition of control values
Protocol: as §1, §2, §3, §4, §5, §6

IKKalpha (h) = IKKalpha (h) (Homo sapiens (Human), UniProt O15111); assay: Kinase selectivity panel: IKKalpha (h); conditions: 10 μM in duplicate, read-out: % inhibition of control values
Protocol: as §1, §2, §3, §4, §5, §6

EphA4 kinase (h) = EphA4 kinase (h) (Homo sapiens (Human), UniProt P54764); assay: Kinase selectivity panel: EphA4 kinase (h); conditions: 10 μM in duplicate, read-out: % inhibition of control values
Protocol: as §1, §2, §3, §4, §5, §6

PDK1 (h) = PDK1 (h) (Homo sapiens (Human), UniProt O15530); assay: Kinase selectivity panel: PDK1 (h); conditions: 10 μM in duplicate, read-out: % inhibition of control values
Protocol: as §1, §2, §3, §4, §5, §6

PhKgamma 2 (h) = PhKgamma 2 (h) (Homo sapiens (Human), UniProt P15735); assay: Kinase selectivity panel: PhKgamma 2 (h); conditions: 10 μM in duplicate, read-out: % inhibition of control values
PhKgamma 2 (h), sequence (P15735 whole entry): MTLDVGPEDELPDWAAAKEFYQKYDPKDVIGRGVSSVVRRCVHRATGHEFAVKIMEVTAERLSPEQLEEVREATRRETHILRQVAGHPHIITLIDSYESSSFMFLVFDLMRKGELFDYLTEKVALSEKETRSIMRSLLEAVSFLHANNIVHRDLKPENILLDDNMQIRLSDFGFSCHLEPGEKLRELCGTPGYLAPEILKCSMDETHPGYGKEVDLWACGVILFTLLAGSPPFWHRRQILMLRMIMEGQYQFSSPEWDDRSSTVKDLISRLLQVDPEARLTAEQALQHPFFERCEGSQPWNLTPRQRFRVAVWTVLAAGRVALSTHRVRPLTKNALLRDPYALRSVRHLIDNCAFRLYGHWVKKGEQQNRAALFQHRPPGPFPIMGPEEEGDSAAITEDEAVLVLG
Protocol: as §1, §2, §3, §4, §5, §6

GRK3/BARK2 (h) (ADRBK2) = GRK3/BARK2 (h) (ADRBK2) (Homo sapiens (Human), UniProt P35626); assay: Kinase selectivity panel: GRK3/BARK2 (h) (ADRBK2); conditions: 10 μM in duplicate, read-out: % inhibition of control values
GRK3/BARK2 (h) (ADRBK2), sequence (P35626 whole entry): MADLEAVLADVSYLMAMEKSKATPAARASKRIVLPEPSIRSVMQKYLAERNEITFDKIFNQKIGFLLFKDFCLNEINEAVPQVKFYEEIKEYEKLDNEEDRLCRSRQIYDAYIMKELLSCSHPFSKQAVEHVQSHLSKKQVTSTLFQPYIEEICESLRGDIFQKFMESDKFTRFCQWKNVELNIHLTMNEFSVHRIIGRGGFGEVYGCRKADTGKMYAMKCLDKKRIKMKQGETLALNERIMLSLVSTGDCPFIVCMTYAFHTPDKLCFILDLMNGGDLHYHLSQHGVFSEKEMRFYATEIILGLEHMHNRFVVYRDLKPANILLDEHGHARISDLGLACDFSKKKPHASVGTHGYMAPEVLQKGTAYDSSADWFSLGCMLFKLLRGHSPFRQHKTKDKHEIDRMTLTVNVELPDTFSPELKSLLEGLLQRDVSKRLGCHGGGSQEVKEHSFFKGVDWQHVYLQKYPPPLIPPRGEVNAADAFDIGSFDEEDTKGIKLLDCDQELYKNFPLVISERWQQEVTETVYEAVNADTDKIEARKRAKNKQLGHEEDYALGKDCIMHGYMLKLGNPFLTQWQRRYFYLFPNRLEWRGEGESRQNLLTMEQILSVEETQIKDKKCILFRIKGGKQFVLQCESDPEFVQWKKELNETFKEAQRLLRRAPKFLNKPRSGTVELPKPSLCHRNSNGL
Protocol: as §1, §2, §3, §4, §5, §6

PKCalpha (h) = PKCalpha (h) (Homo sapiens (Human), UniProt P17252); assay: Kinase selectivity panel: PKCalpha (h); conditions: 10 μM in duplicate, read-out: % inhibition of control values
Protocol: as §1, §2, §3, §4, §5, §6

c-Met kinase (h) = c-Met kinase (h) (Homo sapiens (Human), UniProt P08581); assay: Kinase selectivity panel: c-Met kinase (h); conditions: 10 μM in duplicate, read-out: % inhibition of control values
Protocol: as §1, §2, §3, §4, §5, §6

CDK5/p35 (h) = CDK5/p35 (h) (Homo sapiens (Human), UniProt Q00535); assay: Kinase selectivity panel: CDK5/p35 (h); conditions: 10 μM in duplicate, read-out: % inhibition of control values
CDK5/p35 (h), sequence (Q00535 whole entry): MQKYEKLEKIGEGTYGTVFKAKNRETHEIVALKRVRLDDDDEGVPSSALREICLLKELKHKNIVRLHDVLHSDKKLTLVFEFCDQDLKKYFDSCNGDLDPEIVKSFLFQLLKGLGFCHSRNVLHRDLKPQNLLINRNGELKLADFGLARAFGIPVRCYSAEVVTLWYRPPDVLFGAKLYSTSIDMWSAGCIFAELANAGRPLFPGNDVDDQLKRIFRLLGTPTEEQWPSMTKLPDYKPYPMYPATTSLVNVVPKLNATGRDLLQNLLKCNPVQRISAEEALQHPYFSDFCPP
CDK5/p35 (h), sequence (Q15078 whole entry partner): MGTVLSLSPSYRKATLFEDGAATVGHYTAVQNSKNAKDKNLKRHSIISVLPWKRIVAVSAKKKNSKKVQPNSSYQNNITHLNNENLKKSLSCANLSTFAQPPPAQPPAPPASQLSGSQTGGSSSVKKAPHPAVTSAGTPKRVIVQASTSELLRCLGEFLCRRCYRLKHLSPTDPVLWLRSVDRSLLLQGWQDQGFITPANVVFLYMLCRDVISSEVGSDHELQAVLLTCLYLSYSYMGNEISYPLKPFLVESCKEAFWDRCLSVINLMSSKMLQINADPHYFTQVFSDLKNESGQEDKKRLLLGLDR
Protocol: as §1, §2, §3, §4, §5, §6

Akt1/PKBalpha (h) = Akt1/PKBalpha (h) (Homo sapiens (Human), UniProt P31749); assay: Kinase selectivity panel: Akt1/PKBalpha (h); conditions: 10 μM in duplicate, read-out: % inhibition of control values
Protocol: as §1, §2, §3, §4, §5, §6

PKA (h) = PKA (h) (Homo sapiens (Human), UniProt P17612); assay: Kinase selectivity panel: PKA (h); conditions: 10 μM in duplicate, read-out: % inhibition of control values
Protocol: as §1, §2, §3, §4, §5, §6

Compound	inhibition at 10 µM (FGFR1 kinase (h))	inhibition at 10 µM (RSK2 (h))	inhibition at 10 µM (NEK7 (h))	inhibition at 10 µM (CHK1 (h))	inhibition at 10 µM (Src kinase (h))	inhibition at 10 µM (Pim1 kinase (h))	inhibition at 10 µM (PKCbeta 1 (h))	inhibition at 10 µM (CDK2 (h) (cycA))	inhibition at 10 µM (DCAMKL1 (h))	inhibition at 10 µM (IRK (h) (InsR))	inhibition at 10 µM (EphB4 kinase (h))	inhibition at 10 µM (MYT1 kinase (h))	inhibition at 10 µM (p38delta kinase (h))	inhibition at 10 µM (human GSK-3β)	pIC50 (human GSK-3β)	inhibition at 10 µM (Abl kinase (h))	inhibition at 10 µM (DYRK1a (h))	inhibition at 10 µM (JAK1 (h))	inhibition at 10 µM (AurB/Aur1 kinase (h))	inhibition at 10 µM (DLK1 (h) (MAP3K12))	further results
COc1ccc2[nH]nc(C(=O)NCC3CCN(CC(=O)O)CC3)c2c1 [Compound 1, [4-({[(5-methoxy-1H-indazol-3-yl)-carbonyl]amino}methyl)piperidin-1-yl]acetic acid]	0%	0%	0%	5%	1%	0%	0%	18%	0%	0%	2%	0%	0%	92%	6.17	0%	76%	0%	0%	0%	inhibition at 10 µM (IKKalpha (h)): 0%; inhibition at 10 µM (EphA4 kinase (h)): 0%; inhibition at 10 µM (PDK1 (h)): 6%; inhibition at 10 µM (PhKgamma 2 (h)): 30%; inhibition at 10 µM (GRK3/BARK2 (h) (ADRBK2)): 0%; inhibition at 10 µM (PKCalpha (h)): 0%; inhibition at 10 µM (c-Met kinase (h)): 3%; inhibition at 10 µM (CDK5/p35 (h)): 19%; inhibition at 10 µM (Akt1/PKBalpha (h)): 0%; inhibition at 10 µM (PKA (h)): 0%
COCCN1CCC(CNC(=O)c2n[nH]c3ccc(OC)cc23)CC1 [Compound 2, 5-methoxy-N-{[1-(2-methoxyethyl)-piperidin-4-yl]methyl}-1H-indazole-3-carboxamide]	0%	1%	0%	8%	6%	2%	1%	11%	3%	0%	17%	1%	0%	85%	6.06	0%	56%	0%	6%	0%	inhibition at 10 µM (IKKalpha (h)): 0%; inhibition at 10 µM (EphA4 kinase (h)): 0%; inhibition at 10 µM (PDK1 (h)): 6%; inhibition at 10 µM (PhKgamma 2 (h)): 1%; inhibition at 10 µM (GRK3/BARK2 (h) (ADRBK2)): 0%; inhibition at 10 µM (PKCalpha (h)): 0%; inhibition at 10 µM (c-Met kinase (h)): 0%; inhibition at 10 µM (CDK5/p35 (h)): 13%; inhibition at 10 µM (Akt1/PKBalpha (h)): 4%; inhibition at 10 µM (PKA (h)): 2%

From patent US9611249B2, “1H-indazole-3-carboxamide compounds as glycogen synthase kinase 3 beta inhibitors” (AZIENDE CHIMICHE RIUNITE ANGELINI FRANCESCO A.C.R.A.F. …, priority 2012, dated 2017)
